# Values quoted from earlier work, collected in patent publication US20020064788A1, “Systematic approach to mechanism-of-response analyses” (priority 2000, published 2002).
# Read-outs that look alike come from different tables or passages of the source.
# Assays:
# [1] = test system: malignant and normal cells
# [2] = test system: intracellular Ca^2+ levels; c-fos, c-jun, AP-1; conditions: partial inhibition of Na+K+-ATPase
# androgen-dependent cells = conditions: ouabain-induced decrease in Na+K+-ATPase activity
# [3] = test system: Jurkat (T-cell) cell lines
# Glioblastoma cell lines = conditions: 30-60 nM, several Glioblastoma cell lines
# [4] = test system: Daudi (B-cell) cell lines; conditions: non-toxic doses
# breast cancer = conditions: women on digitalis, five years after mastectomy
molecule,measurement,setting,value
C[C@H]1O[C@@H](O[C@H]2[C@@H](O)C[C@H](O[C@H]3[C@@H](O)C[C@H](O[C@H]4CC[C@@]5(C)[C@H](CC[C@@H]6[C@@H]5CC[C@]5(C)[C@@H](C7=CC(=O)OC7)CC[C@]65O)C4)O[C@@H]3C)O[C@@H]2C)C[C@H](O)[C@@H]1O [Digitoxin],inhibition of Na+K+-ATPase,Na^+K^+-ATPase,specific inhibitors
C[C@@H]1O[C@@H](O[C@H]2C[C@@H](O)[C@]3(CO)[C@H]4[C@H](O)C[C@]5(C)[C@@H](C6=CC(=O)OC6)CC[C@]5(O)[C@@H]4CC[C@]3(O)C2)[C@H](O)[C@H](O)[C@H]1O [ouabain],sensitization to irradiation,[1]; malignant cells,sensitizes
same,sensitization to irradiation,[1]; normal cells,not
same,"expression of c-fos, c-jun, and the transcription factor AP-1",[2],increases
same,intracellular Ca2+ levels,[2],increases
same,inhibition of Na+K+-ATPase,Na^+K^+-ATPase,specific inhibitors
same,sensitivity of cells to cisplatin,androgen-dependent cells,reduces sensitivity
CC/C(=C(\c1ccccc1)c1ccc(OCCN(C)C)cc1)c1ccccc1 [tamoxifen],inhibition of Na+K+-ATPase,Na^+K^+-ATPase,appears to inhibit
digitalis,apoptosis,"[3]; non-toxic doses, Jurkat",induces apoptosis
same,apoptosis,Glioblastoma cell lines,induces apoptosis
same,cell adherence,Glioblastoma cell lines,affects cell adherence
same,apoptosis,[4],induces apoptosis
same,reduction in recurrence of breast cancer,breast cancer,9.6 fold
"Fas ligand: protein which binds to Fas receptor and strongly induces apoptosis (protein, UniProt P48023 130-281, looked up) Tumor necrosis factor ligand …: QIGHPSPPPEKKELRKVAHLTGKSNSRSMPLEWEDTYGIVLLSGVKYKKGGLVINETGLYFVYSKVYFRGQSCNNLPLSHKVYMRNSKYPQDLVMMEGKMMSYCTTGQMWARSSYLGAVFNLTSADHLYVNVSELSLVNFEESQTFFGLYKL",apoptosis,"[3]; Jurkat cells, monitored by flow cytometry",induces apoptosis
